# Measured values as given in patent US11912755B2, “Endostatin fragments and variants for use in treating fibrosis” (iBio, Inc., priority 2015, dated 2024).
# Entries after “also recorded” stand apart in the source; their conditions may differ. Ends that are not written are not given here.
# Key:
# lysyl oxidase (LOX) = test: LOX Western blot in conditioned media of primary human lung fibroblasts; format: cell-based; conditions: TGF-β followed 30 min later by E4; 48 h
# Method: FIG. 13. E4 reduces fibrosis in vitro by blocking TGF-β-induced LOX production in primary human lung fibroblasts. Normal lung fibroblasts in passage 4 were treated with vehicle, E4, TGF-β, or TGF-β followed 30 min. later by E4. Media conditioned by the fibroblasts were analyzed using Western blot analysis after 48 hour. Lane 1: Vehicle (DMSO); Lane 2: E-4; Lane 3: TGF-β; Lane 4: TGF-β followed by E4. Similar results were obtained when LOX mRNA levels were examined by real-time PCR.
# E4-mediated reduction of LOX was detected also was detected in vitro. Normal lung fibroblasts in passage 4 were treated with vehicle, E4, TGF-β, or TGF-β followed 30 minutes later by E4 (FIG. 13). Media conditioned by the fibroblasts were analyzed using Western blot analysis after 48 hrs. […] Similar results were obtained when LOX mRNA levels were examined by real-time PCR.
# human skin explants [1] = test: Ex vivo human skin assay, dermal thickness; format: cell-based
# Method: Ex vivo human skin assays. Human abdominal skin was obtained from corrective plastic surgery. As previously described (Yasuoka et al., The Open Rheumatol J 2008; 2:17-22), subcutaneous fat tissue was removed uniformly and skin tissue was cut into 1.5 cm×1.5 cm sections. The following were injected intradermally in a total volume of 100 μl 1×PBS: rE alone (1-10 μg/ml), endostatin peptides alone (10 μg/ml), rE or endostatin peptides (1-20 μg/ml) in combination with TGF-β (10 ng/ml), and TGF-β alone (10 ng/ml). In some experiments, human skin was first injected with TGF-β for 48 h followed by recombinant endostatin (rE) administration in the same injection site as TGF-β. Explants containing complete epidermal and dermal layers were cultured in an air liquid interface with the epidermal and keratin layers side up and exposed to air. The culture medium was replaced every other day. After 1 or 2 weeks, skin tissue corresponding to an area with 8-mm diameter centered around the injection site was harvested using disposable 8-mm ACUPUNCH® (Acuderm, Inc., Lauderdale, FL). Skin tissue was fixed in 10% formalin prior to embedding in paraffin.
# Measurement of Skin Dermal Thickness. Six μm sections of paraffin-embedded human and mouse skin tissues were stained with hematoxylin and eosin (H&E). In some experiments, sections were stained with Masson trichrome which identifies collagens. Images were taken on a Nikon Eclipse 800 microscope. The thickness of the dermis was measured in 6 random fields of each section using the image/J® software. Data are shown in arbitrary units.
# human skin explants [2] = conditions: single dose concurrently with TGF-β; cited from earlier work
# [3] = test system: bleomycin induced dermal fibrosis; conditions: s.c.; single dose prophylactically, or multiple dose regimen starting 3 days after bleomycin; cited from earlier work
# [4] = test system: bleomycin induced lung fibrosis; test: Bleomycin-induced pulmonary fibrosis in mice (E4); format: in vivo, mouse
# Method: FIG. 10A-10C. E4 attenuates bleomycin induced lung fibrosis in vivo. FIG. 10A: Sixty μg of bleomycin was administrated intratracheally in combination with DMSO as a vehicle (Bleo) or E-4 (Bleo+E-4; 10 μg/ml). In some mice, E-4 (10 μg/ml) was administered intratracheally (IT) three days following bleomycin treatment (Bleo+E-4L). PBS was used as a vehicle for bleomycin (V). Lungs were harvested 10 days post-treatment. Representative images stained with H&E (left panel) and Masson trichrome (right panel) are representative of 3 independent experiments. Magnification, 100×. […] FIG. 10B: Quantification of acid soluble collagen obtained from mouse lungs treated with V. Bleo, Bleo+E-4, and Bleo+E-4L. The levels of collagen are presented as μg/mg (lung) from three independent experiments. Unpaired-t test was used for statistical analysis. *P<0.05. […] FIG. 10C: Lower magnification (2×) of mouse lung shown in FIG. 9 (BLM+E4/E4L IT day 10). For Bleo+E4L, Bleo was administered first, then there was a lag of three days between Bleo and E4 administration).
# FIG. 11. […]
# E4, a peptide representing the carboxy terminus of human endostatin, can attenuate fibrosis triggered by multiple fibrogenic factors. The anti-fibrotic effects of E4 can be detected whether administered concomitantly with or following the fibrogenic trigger. […]
# For these studies, fibrosis was assessed by measurement of dermal thickness on H&E skin sections (skin), assessment of collagen levels by Masson Trichrome staining (skin and lung), and measurement of collagen levels by Sircol assay (lung). Furthermore, to confirm the mechanism by which E4 exerts its anti-fibrotic effects, the production of extra-cellular matrix (ECM) components, the levels of enzymes that promote matrix stabilization and thus accumulation and levels of those that degrade ECM components, and levels of transcription factors downstream of the pro-fibrotic triggers were evaluated. Results were assessed using the unpaired t test and the 3-way ANOVA (for the ID1 data).
substance,measurement,setting,value
"E4: SEQ ID NO: 21, amino acids 133-180 of human endostatin with a C-terminal amide (SYCETWRTEAPSATGQASSLLGGRLLGQSAASCHHAYIVLCIENSFMT-NH2; cysteine pairing not given here)",TGF-β-induced LOX production,lysyl oxidase (LOX),significantly reduced; also recorded: blocking
same,"TGF-β-induced skin fibrosis, dose response",human skin explants [1]; concentrations of 5-20 μg/ml with TGF-β,clearly ameliorated
same,"dermal thickness, baseline effect","human skin explants [1]; injected alone, no TGF-β, rE 1, 5, 10 μg/ml, peptides 10 μg/ml",tendency towards reduction
same,development of fibrosis as measured by dermal thickness,"human skin explants [1]; peptides 10 μg/ml with 10 ng/ml TGF-β, vs TGF-β alone",significantly abolished
same,collagen increase,human skin explants [2],skin thickness and attenuated
same,skin thickness,human skin explants [2],"TGF-β, significantly decreased"
same,skin thickness,[3],E4 significantly decreased skin
same,fibrosis and Masson Trichrome staining in lung,"[4]; E4 10 μg/ml IT concomitantly with or three days following bleomycin, day 10",marked reduction
same,collagen levels in mouse lungs,"[4]; E4 given 3 days after bleomycin, acid soluble collagen",significantly reduced
same,bleomycin induced lung fibrosis on day 21,"[4]; bleomycin IT day 1, E4 IP or IT at day 3",significant attenuation
